The record followed here is the METLIN SMRT retention time set (Domingo-Almenara et al. 2019).

The structures appear in SMILES notation.

The data set can be described thus: gradient 5% acetonitrile 3 min, to 50% in 2 min, to 85% in 15 min, held 3 min, 100 µL/min. Particulars: column: Zorbax Extend-C18 2.1 x 50 mm; eluents: water / acetonitrile, 0.1% formic acid. The method, boiled down:
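Retention times of pure standards were taken from adduct peaks that were selected by computer and manually inspected. Over 3 months, mixtures of ~100 molecules were run by HPLC–quadrupole time-of-flight mass spectrometry in positive and negative ionization mode. The Zorbax Extend-C18 column (2.1 × 50 mm, 1.8 μm) ran at 100 μL/min in water and acetonitrile, each containing 0.1% formic acid, with 40 μL dead volume and 900 μL dwell volume.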
The compound `CCC(=O)N1CCc2sc(S(=O)(=O)N3CCN(c4cccc(C)c4)CC3)cc2C1` displayed an RP-LC retention time of 1010 s.

`O=C(c1ccc(-c2ccc3c(c2)CCN3C(=O)Nc2ccc3c(c2)OCCO3)cc1)N1CCOCC1` displayed an RP-LC retention time of 804 s.

Take `Cc1ccc(C)c(N2CCN(C(=O)Cn3ccc4ccc(N5CCOCC5)nc43)CC2)c1`: the RP-LC retention time was found to be 1110 s.

`Cc1cnc(-c2ccncc2)n1CC1CN(S(=O)(=O)C(C)C)C1` yielded an RP-LC retention time of 573 s.

In turn, `CCCCN1CN(c2ccc(C)cc2)c2ncccc2S1(=O)=O` had an RP-LC retention time of 1110 s.

In the case of `Cn1nc(C(=O)NCC2CCOCC2)c2ccccc21`, the RP-LC retention time was found to be 697 s.

In turn, `O=C(CCN1C(=O)C2C3C=CC(C3)C2C1=O)Nc1nc(-c2ccccc2)cs1` (centres undefined) yielded an RP-LC retention time of 926 s.

Take `COc1ccc(CNC(=O)c2cn3ccccc3n2)c(OC)c1`: the RP-LC retention time was determined as 658 s.

`O=C(c1ccc(CS(=O)(=O)c2c(Cl)cccc2Cl)o1)N1CCN(c2ccccn2)CC1` yielded an RP-LC retention time of 634 s.

For the compound `COc1cccc(CC(=O)N2CCc3cc(-c4csc(C)n4)ccc32)c1`, the RP-LC retention time came to 967 s.

Turning to `CCc1ccc(S(=O)(=O)N2CCC(n3cnnc3CC)CC2)cc1`, the RP-LC retention time came to 746 s.

Consider `O=C(CNC(=O)c1ccc(=O)[nH]c1)NCCOc1ccc(F)cc1`, for which the RP-LC retention time came to 583 s.

With `Cc1cc(NC(=O)Cn2nc(C(=O)N3CCCC3)c3ccccc32)ccc1Br`, the RP-LC retention time is 948 s.

As for `Cc1ccc(-c2csc(Nc3ccc(Br)cn3)n2)cc1C`, the RP-LC retention time was found to be 1340 s.

`COc1ccccc1-c1noc(C2CCCN2C(=O)c2cc(F)ccc2F)n1` (centres undefined) had an RP-LC retention time of 968 s.

`CS(=O)(=O)N1CCC(C(=O)N2CCC(Oc3nc4ccc(F)cc4s3)CC2)CC1` showed an RP-LC retention time of 779 s.

For the compound `CCc1ccc(Nc2nc(C(=O)NC3CCCC3)nc3ccccc23)cc1`, the RP-LC retention time came out at 934 s.

In turn, `O=C(CN1CCN(Cc2ccc(F)cc2)C1=O)NCc1ccccc1C(F)(F)F` displayed an RP-LC retention time of 866 s.

Compound `CCCn1c(=O)sc2cc(S(=O)(=O)N3CCC(C(=O)NCc4cccs4)CC3)ccc21` returned an RP-LC retention time of 880 s.

`CCOc1ccc(NC(=O)CN2C(=O)c3ccccc3Sc3ncccc32)cc1` registered an RP-LC retention time of 843 s.

The compound `COc1cccc(Cn2c(=O)c3sccc3n(Cc3nc(-c4cccc(C)c4)no3)c2=O)c1` returned an RP-LC retention time of 1160 s.

In turn, `COc1cccc(NS(=O)(=O)c2c[nH]c3ncccc23)c1` returned an RP-LC retention time of 688 s.

The compound `COc1ccc(Cc2nc(-c3ccc4c(c3)nc(C)c(=O)n4C)no2)cc1` had an RP-LC retention time of 927 s.

In the case of `Cc1ccc(-c2noc(CN3C(=O)COc4ccc(Cl)cc43)n2)cc1`, the RP-LC retention time was 1150 s.

In the case of `CCOc1cccc(-c2noc(Cc3nnc(-c4cccc(F)c4)o3)n2)c1`, the RP-LC retention time was determined as 1070 s.

Take `O=C(c1ccccc1C(F)(F)F)N1CCc2nc(-c3ccc(F)cc3)ncc2C1`: the RP-LC retention time came out at 1020 s.

`COc1ccc2nc(NC(=O)Cn3nc(C(=O)N4CCOCC4)c4ccccc43)sc2c1` yielded an RP-LC retention time of 761 s.

Take `CC(C)(C)c1ccc(C(CNC(=O)c2cc(-c3ccc4c(c3)OCCO4)on2)N2CCCC2)cc1` (centres undefined): the RP-LC retention time turned out to be 844 s.

Turning to `O=C(Cn1c(=O)n(-c2ccc(F)cc2)c2ncccc21)NC1CCCC1`, the RP-LC retention time was 773 s.

Consider `O=C(CCn1ccnc1)N1CCC2(CCC(=O)N(CC3CC3)CC2)CC1`, for which the RP-LC retention time came out at 577 s.

Compound `COc1ccc(NC(=O)C2CCCN2S(=O)(=O)c2cc3c(cc2C)NC(=O)CO3)cc1Cl` (centres undefined) returned an RP-LC retention time of 775 s.

In the case of `Cc1ccn2cc(C(=O)N3CCN(c4ccccc4)CC3)nc2c1`, the RP-LC retention time was found to be 634 s.

`Cc1cc(NCc2ccccn2)n2ncc(-c3ccccc3)c2n1`: the RP-LC retention time came out at 706 s.

`O=C(Nc1c(-c2ccc(F)cc2)nc2ccccn12)c1cccc(Cl)c1`: the RP-LC retention time turned out to be 750 s.

In turn, `Cn1ncc2c3ccccc3n(CCCC(=O)NC3CCN(Cc4ccccc4)CC3)c2c1=O` had an RP-LC retention time of 655 s.

In turn, `Cc1cc(C)c(NC(=O)Cn2cnc3nc(N4CCCC(C(=O)NC5CC5)C4)sc3c2=O)c(C)c1` (centres undefined) gave an RP-LC retention time of 723 s.

The compound `CCc1ccc2nc(Nc3ncc4c(n3)CC(c3ccc(OC)cc3)CC4=O)nc(C)c2c1` (centres undefined) displayed an RP-LC retention time of 820 s.

`COc1ccc(CC(=O)Nc2ccc(-c3cn4ccsc4n3)cc2)cc1OC` returned an RP-LC retention time of 604 s.

Regarding `Cc1ccn2cc(-c3cccc(S(=O)(=O)N4CCCC4)c3)nc2c1`, the RP-LC retention time came out at 611 s.

Regarding `CC(=O)N1CCC(NC(=O)Nc2cccc(C)c2)C1` (centres undefined), the RP-LC retention time stood at 635 s.

`CC1=C(c2ccc(F)cc2)S(=O)(=O)N=C1N1CCCN(C(=O)Nc2ccccc2)CC1` came in with an RP-LC retention time of 806 s.

The compound `O=C(NC1CCCC1)N1CCCCC1c1nncn1-c1ccccc1` (centres undefined) returned an RP-LC retention time of 602 s.

On to `Cn1cnnc1SCC(=O)N1CCc2ccccc21`, for which the RP-LC retention time was 604 s.

`O=C(C1CCN(c2nnc(-n3cccc3)s2)CC1)N1CCN(c2ncccn2)CC1` yielded an RP-LC retention time of 738 s.

In turn, `Cc1nn(C)c2nc(OC(C)C(=O)NCc3ccccc3Cl)cc(C(F)(F)F)c12` (centres undefined) registered an RP-LC retention time of 1020 s.

Regarding `Cc1ccc(-c2ncc3c(=O)n(Cc4ccc(Cl)cc4)c(=O)n(C)c3n2)cc1`, the RP-LC retention time amounted to 1360 s.

`Cc1ccc(C)c(C(=O)Nc2ccc3c(c2)Sc2ncccc2C(=O)N3C(C)C)c1` yielded an RP-LC retention time of 922 s.

Turning to `CCOCCCNC(=O)C1CCN(c2ncnc3c2oc2ccccc23)CC1`, the RP-LC retention time amounted to 633 s.

As for `Cn1cc(C2=CCN(C(=O)c3cccc(Cl)c3)CC2)c2cccnc21`, the RP-LC retention time was found to be 901 s.

Regarding `Cc1csc(-c2cc(S(=O)(=O)NCCC3=CCCCC3)cn2CC(=O)N2CCCC2)n1`, the RP-LC retention time worked out at 1030 s.

`CCc1nc(-c2csc(S(=O)(=O)N3CCCC(C(=O)N(C)c4ccc(C)c(C)c4)C3)c2)no1` (centres undefined) gave an RP-LC retention time of 1140 s.

In the case of `COc1cc2c(Nc3ccc(NC(=O)c4ccccc4)cc3)ncnc2cc1OCCCN1CCOCC1`, the RP-LC retention time worked out at 627 s.

As to `CSc1ccccc1NC(=O)C(=O)NCC(C)(O)c1ccco1` (centres undefined), the RP-LC retention time was found to be 995 s.

Compound `CN(C)S(=O)(=O)c1ccc(CNC(=O)c2cccc(-c3nnc(-c4ccccc4)o3)c2)s1` displayed an RP-LC retention time of 904 s.

Compound `CC(=O)c1ccc(NS(=O)(=O)c2ccccc2[N+](=O)[O-])cc1` registered an RP-LC retention time of 729 s.

On to `COc1ccc(C(=O)n2c(SC)nc3ccccc32)cc1OC`, for which the RP-LC retention time was found to be 827 s.

`O=C(Cn1ncc2c(N3CCN(c4ccccn4)CC3)ncnc21)Nc1cccc(Br)c1` registered an RP-LC retention time of 648 s.

`CC(C)Cc1nnc(NC(=O)C2CCN(C(=O)c3cccc(F)c3)CC2)s1` came in with an RP-LC retention time of 780 s.

`O=C(NCC1CCOCC1)Nc1cc(F)c(F)c(F)c1` showed an RP-LC retention time of 755 s.

Compound `CN(C)S(=O)(=O)c1cc(-c2nnc(-c3ccc(F)cc3)o2)ccc1Cl` came in with an RP-LC retention time of 991 s.

In turn, `O=C(Cc1csc2nc(-c3ccccc3)cn12)Nc1ccc(Cl)cc1` yielded an RP-LC retention time of 868 s.

On to `O=C(NC1CCCCC1)N1CCCCC1c1nncn1CC1CC1` (centres undefined), for which the RP-LC retention time was determined as 704 s.

On to `COc1cccc(-c2nc(Cn3ccnc3)no2)c1`, for which the RP-LC retention time stood at 601 s.

Turning to `CCOc1ccc(NC(=O)C2(C)Oc3cccnc3NC2=O)cc1` (centres undefined), the RP-LC retention time is 740 s.

For `COc1ccc(-c2noc(Cc3nnc(-c4cccc(F)c4)o3)n2)cc1F`, the RP-LC retention time came out at 1000 s.

Compound `O=C(c1nc(Cn2cnc3ccccc3c2=O)no1)N1CCN(Cc2ccc3c(c2)OCO3)CC1` came in with an RP-LC retention time of 691 s.

Take `CC1=C(c2ccccc2)S(=O)(=O)N=C1N1CCCN(C(=O)c2ccc(C)s2)CC1`: the RP-LC retention time is 821 s.

In turn, `Cc1ccc(-c2nc3cnccn3c2Nc2c(C)cccc2C)cc1` gave an RP-LC retention time of 947 s.

`CCOc1ccc(C(=O)NCCc2nc3cccnc3n2CC)cc1`: the RP-LC retention time was 642 s.

For `O=C(CN1C(=O)C(C(=O)N2CCCC2)Sc2ccccc21)NCCc1ccccc1` (centres undefined), the RP-LC retention time was found to be 898 s.

`CCc1ccc(NC(=O)N2CCC(n3cnc4c(C)cccc4c3=O)CC2)cc1`: the RP-LC retention time is 838 s.

The compound `N#Cc1ccc(C(=O)N2CCN3CCS(=O)(=O)N(C4CC4)C(=O)C3C2)cc1` (centres undefined) came in with an RP-LC retention time of 955 s.

On to `COc1ccc(NC(=O)c2nc(N3CCCC3)c3c(C)cc(C)nc3n2)cc1`, for which the RP-LC retention time amounted to 656 s.

`COCCN1C(=O)c2cccn2CC1CNC(=O)CC(C)C` (centres undefined) registered an RP-LC retention time of 639 s.

On to `CCc1onc(C)c1C1CCCN1C(=O)Nc1cccc(F)c1` (centres undefined), for which the RP-LC retention time was determined as 832 s.

Compound `Cc1nc(Nc2ccc(F)cn2)sc1C(=O)NC(C)c1ccc(F)cc1` (centres undefined) returned an RP-LC retention time of 887 s.

On to `CCn1cc(S(=O)(=O)N2CCC(c3noc(COCCOC)n3)CC2)cn1`, for which the RP-LC retention time was 704 s.

The compound `CCCN1CCN(S(=O)(=O)c2cc(-c3nnc(C(C)C)o3)co2)CC1` yielded an RP-LC retention time of 618 s.

Turning to `CC(NC(=O)CN1C(=O)C2CCCCN2c2ccc(S(=O)(=O)N3CCCC3)cc21)c1ccccc1` (centres undefined), the RP-LC retention time was 956 s.
